# In US20250127168A1, “METHOD FOR PATHOGENS, MICROORGANISMS, AND PARASITES INACTIVATION” (New York Blood Center, Inc., priority 2018, published 2025):
# Key:
# [1] = Neutralization and covalent sequestration of compound VI by nucleophile-functionalized solid phase agents (LCMS); format: physicochemical
# Description: Sulfonylchloride functionalized divinylbenzene crosslinked polystyrene resin (Sigma-Aldrich Cat. no. 498211-5g) was mixed with 5 ml 2M sodium hydrogen sulfide solution (prepared by saturation of sodium sulfide nonahydrate solution in water with hydrogen sulfide) under argon. The mixture was sonicated for ca. 3 min and then stirred at 55° C. for 4 h. After that the resin was filtered and washed three times with deaerated water, there times with deaerated methanol, and two times with deaerated ether. The resin was dried under stream of argon and then under vacuum. Obtained, 1.039 g dry resin (compound XXVIII), thiosulfonate functionalized polystyrene/divinylbenzene resin. An aliquot of compound XXVIII was added to a solution of compound VI, 100 μM in PBS.
# Aminoethyl groups functionalized methacrylate resin (Purolite Ltd, Llantrisant, Wales, UK, Product No. D6195, trade name Chromalite MAM2, 0.5 mmol amino groups per ml wet resin, 68% moisture), 300 mg, was dried by three evaporation from 2 ml dry N,N-dimethylformamide under vacuum at 35° C. […] The load of mercapto groups on the product, compound XXX, was determined using the Elman's procedure (Riener, C. K.; Kada, G.; Gruber, H. J., Anal. Bioanal. Chem., 2002, 373, 266-76) and was 0.21 mmol per gram of wet resin. […]
# Tentagel S NH2 resin, 200 mg (Rapp Polymere GmbH, Tuebingen, Germany, product No. S30132, divinylbenzene cross-linked polystyrene resin grafted with amino group terminated polyethylene glycol) was swollen for couple of hours in 5 ml dry N,N-dimethylformamide and then the excess of solvent was pipetted off Benzotriazol-1-yl-oxytripyrrolidinophosphonium hexafluorophosphate, 151 mg, 2-(4-(triphenylmethylthio)phenyl)acetic acid, 119 mg, and anhydrous 1-hydroxybenzotriazole, 44 mg, were dissolved in 1.2 mL dry N,N-dimethylformamide. […] The mercapto groups load was determined using the Elman's procedure and was 0.12 mmol per gram of dry resin. […]
# [2] = Neutralization of compound X by ethyl 2-mercaptoacetate (LCMS); format: physicochemical; conditions: PBS, RT; for Peak Areas (LCMS): 100 μM X + 10 mM ethyl 2-mercaptoacetate
# Description: 100 μM solution of compound X in phosphate buffered saline was incubated at room temperature with 10 mM of ethyl-2-mercaptoacetate, and the change of the concentration of compound X, as well as the formation of the intermediate compound of neutralization (XXI) and the final compound of neutralization XXII was determined by LCMS analysis of the mixture. The reaction scheme of neutralization is presented below. The peak areas of compound X, intermediate neutralization product, Q1 (compound XXI) and final neutralization product, Q2 (compound XXII) are presented in the Table 8 below, and in FIG. 18.
# [3] = Binding of compound X to sulfonic cation exchange resin (Purolite NRW160, Na+ form) through ion pairs; format: physicochemical; conditions: 50 mg dry beads in one mL of 100 μM solution in PBS
# Description: Purolite NRW160 polystyrene divinylbenzene cross-linked resin functionalized with sulfonic groups in the H^+ form, 500 g was transferred into the Na^+ form by the following steps: The beads were washed on a vacuum filter and under a sterile hood with 3 volumes of saturated NaCl solution, followed by two volume of 1 M NaOH. After NaOH sterilization beads were washed by sterile deionized water until the pH of the rinsings became neutral. The beads were incubated with two volumes of methanol for 15 min and after removing of methanol were rinsed again with three volumes of sterile deionized water. After final incubation in methanol (2 volumes) the alcohol was removed by filtration and beads were dried under the vacuum.
# Dry beads, 50 mg were added to one mL of 100 μM solution of compound X in phosphate buffered saline.
# [4] = test system: 21-mer synthetic oligodeoxyribonucleotide (SEQ ID NO:1); assay: Reactivity toward nucleic acids, HPLC; format: biochemical; conditions: 10 μM oligonucleotide, 200 μM compound, PBS pH 6.7, 37° C., 6 h
# [5] = test system: synthetic 23-mer oligoribonucleotide (SEQ ID NO:2); assay: Reactivity toward nucleic acids, mass spectrometry; format: biochemical; conditions: 100 μM oligonucleotide, 100 μM compound, PBS pH 7, room temperature, 6 min
# [6] = Neutralization of compound X with thiophenol (LCMS); conditions: for ratio of the peak areas of compounds X, XXVI and XXVII: 100 μM X, 10 mM thiophenol, PBS
# Description: In the right panel are shown the mass spectra of the corresponding peaks.
smiles,measurement,setting,value
"CN(CCCCN(C)CCCN1CC1)CCCN1CC1 [Compound VI, N^1,N^4-bis(3-(aziridin-1-yl)propyl)-N^1,N^4-dimethylbutane-1,4-diamine]",concentration of compound VI in the mixture,[1]; 100 μM in PBS with mercaptophenyl TentaGel S resin XXXII,time dependent decreasing
same,concentration of compound VI in the mixture,[1]; 100 μM in PBS with mercaptophenyl methacrylate resin XXX,time dependent decreasing
same,concentration of compound VI in the mixture,[1]; 100 μM in PBS with thiosulfonate functionalized resin XXVIII,time dependent decreasing
CN(CCCCN(C)CCCN1CC1)CCCN(C)CCCN1CC1 [Compound X],first order rate constant of concentration decrease,[2]; 10 mM ethyl 2-mercaptoacetate,0.022 min⁻¹
same,Peak Areas (LCMS),[2]; Time 6 min,161.9
same,Peak Areas (LCMS),[2]; Time 14.5 min,128.8
same,Peak Areas (LCMS),[2]; Time 23.1 min,123.1
same,Peak Areas (LCMS),[2]; Time 31.6 min,96.3
same,Peak Areas (LCMS),[2]; Time 40.2 min,85
same,Peak Areas (LCMS),[2]; Time 48.7 min,76.9
same,Peak Areas (LCMS),[2]; Time 57.3 min,52.9
same,Peak Areas (LCMS),[2]; Time 65.8 min,42.7
same,Peak Areas (LCMS),[2]; Time 74.3 min,33.1
same,Peak Areas (LCMS),[2]; Time 82.9 min,26
same,Peak Areas (LCMS),[2]; Time 91.4 min,23.2
same,Peak Areas (LCMS),[2]; Time 100.0 min,17.4
same,Peak Areas (LCMS),[2]; Time 108.5 min,14
same,Peak Areas (LCMS),[2]; Time 117.1 min,11.5
same,Peak Areas (LCMS),[2]; Time 125.6 min,7.6
same,concentration of compound X in the supernatant,[3],below 30 nM
same,covalent adducts with the oligonucleotide (HPLC),[4],appearance of covalent adducts
same,covalent adduct with the oligonucleotide (MS),[5],covalent mono-adduct
same,"ratio of the peak areas of compounds X, XXVI and XXVII",[6]; after 1 min and 40 sec (100 sec),21
same,"ratio of the peak areas of compounds X, XXVI and XXVII",[6]; after 10 min,3
same,"ratio of the peak areas of compounds X, XXVI and XXVII",[6]; after 20 min,0.5
same,half-life of compound X,[6]; in presence of 10 mM of thiophenol,below 1 min
